Molecules are shown by their SMILES.

Here are results for 17 compounds from the supplement of paper PMC11424490.

Experiment [1] concerns NCI-H358. The experiment is described as follows: combination cScore with adagrasib (Bliss gap around IC50) (%PoC); higher = stronger additive effect. The method in brief: (§1)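 NCI-H2122, NCI-H358 and SW837 cells (500 or 800 per well, 384-well plates) were dosed in concentration matrices after 24 h and grown 72 h, or 144 h for SW837. CellTiter-Glo luminescence was normalised to vehicle wells as percent of control and fitted with four-parameter curves. The score averages the Bliss-independence gap (expected minus measured viability) over a field around both monotherapy IC50s, or at the top concentrations when no IC50 was reached.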

Experiment [2] relates to NCI-H2122. The experiment is described as above. Summed up:
as §1

Experiment [3] relates to SW837. The description is as above. The method in brief:
as §1

Experiment [4] concerns NCI-H358. The experiment is described as follows: combination cScore with sotorasib (Bliss gap around IC50) (%PoC); higher = stronger additive effect. Summed up:
as §1

The subject of experiment [5] is NCI-H2122. Described as above. Summed up:
as §1

Experiment [6] relates to SW837. The experiment is described as above. Summed up:
as §1

Turning to `COc1cc(Nc2c(C#N)cnc3cc(OCCCN4CCN(C)CC4)c(OC)cc23)c(Cl)cc1Cl` [Bosutinib] + C=C(F)C(=O)N1CCN(c2nc(OC[C@@H]3CCCN3C)nc3c2CCN(c2cccc4cccc(Cl)c24)C3)C[C@@H]1CC#N [adagrasib], the “combination cScore with adagrasib” value in the experiment with NCI-H358 [1] was found to be 1.58; in the experiment with NCI-H2122 [2] it was 14.5; in the experiment with SW837 [3], 6.35.
With `C[C@@H]1OCC2(CCN(c3cnc(Sc4ccnc(N)c4Cl)c(N)n3)CC2)[C@@H]1N` [TNO155] + C=C(F)C(=O)N1CCN(c2nc(OC[C@@H]3CCCN3C)nc3c2CCN(c2cccc4cccc(Cl)c24)C3)C[C@@H]1CC#N [adagrasib], the figures for the “combination cScore with adagrasib” value in the experiment with NCI-H358 [1], with NCI-H2122 [2] and in the experiment with SW837 [3] were 9.32, 49 and 31, respectively.
Turning to `Cc1nc(Nc2ncc(C(=O)Nc3c(C)cccc3Cl)s2)cc(N2CCN(CCO)CC2)n1` [Dasatinib] + C=CC(=O)N1CCN(c2nc(=O)n(-c3c(C)ccnc3C(C)C)c3nc(-c4c(O)cccc4F)c(F)cc23)[C@@H](C)C1 [sotorasib], the “combination cScore with sotorasib” value in the experiment on NCI-H358 [4] came to 9.3; in the experiment with NCI-H2122 [5], 30.8; in the experiment on SW837 [6] it was 17.9.
On to `COc1cc(N2CCC(N3CCN(C)CC3)CC2)ccc1Nc1ncc(Cl)c(Nc2ccccc2S(=O)(=O)C(C)C)n1` [NVP-TAE684] + C=CC(=O)N1CCN(c2nc(=O)n(-c3c(C)ccnc3C(C)C)c3nc(-c4c(O)cccc4F)c(F)cc23)[C@@H](C)C1 [sotorasib], for which the “combination cScore with sotorasib” value is 5.9 in the experiment with NCI-H358 [4], 14.6 in the experiment with NCI-H2122 [5] and 22.3 in the experiment with SW837 [6].
In the same order, the values of `Cc1c(CN2CCC(Nc3ncnc4sc(CC(F)(F)F)cc34)CC2)ccc2[nH]c(C#N)cc12` [MI-463] + C=CC(=O)N1CCN(c2nc(=O)n(-c3c(C)ccnc3C(C)C)c3nc(-c4c(O)cccc4F)c(F)cc23)[C@@H](C)C1 [sotorasib] are 2.97, 10.2 and 12.3.
Consider `C[C@@H]1OCC2(CCN(c3cnc(Sc4ccnc(N)c4Cl)c(N)n3)CC2)[C@@H]1N` [TNO155] + C=CC(=O)N1CCN(c2nc(=O)n(-c3c(C)ccnc3C(C)C)c3nc(-c4c(O)cccc4F)c(F)cc23)[C@@H](C)C1 [sotorasib], for which the “combination cScore with sotorasib” value with NCI-H358 [4] was 10.6; in the experiment with NCI-H2122 [5] it was 41.9; in the experiment on SW837 [6] it was 41.3.
In the case of `COc1cccc2c1C(=O)c1c(O)c3c(c(O)c1C2=O)C[C@@](O)(C(C)=O)C[C@@H]3O[C@H]1C[C@H](N)[C@H](O)[C@H](C)O1` [Daunorubicin] + C=CC(=O)N1CCN(c2nc(=O)n(-c3c(C)ccnc3C(C)C)c3nc(-c4c(O)cccc4F)c(F)cc23)[C@@H](C)C1 [sotorasib], the “combination cScore with sotorasib” value is 2.01 in the experiment with NCI-H358 [4], 18.1 in the experiment with NCI-H2122 [5] and 5.95 in the experiment with SW837 [6].
`Cc1nc(Nc2n[nH]c3c2CN(C(=O)N[C@H](CN(C)C)c2ccccc2)C3(C)C)c2sccc2n1` + C=CC(=O)N1CCN(c2nc(=O)n(-c3c(C)ccnc3C(C)C)c3nc(-c4c(O)cccc4F)c(F)cc23)[C@@H](C)C1 [sotorasib]: the “combination cScore with sotorasib” value with NCI-H358 [4] was -0.36; in the experiment on NCI-H2122 [5], 17.5; with SW837 [6], 4.19.
In the same order, the values of `CCS(=O)(=O)Nc1ccc2c(c1)/C(=C(/Nc1ccc(CN3CCCCC3)cc1)c1ccccc1)C(=O)N2` [Hesperadin] + C=CC(=O)N1CCN(c2nc(=O)n(-c3c(C)ccnc3C(C)C)c3nc(-c4c(O)cccc4F)c(F)cc23)[C@@H](C)C1 [sotorasib] are 4.25, 12.3 and 5.4.
Turning to `CCN(CCCOc1ccc2c(Nc3cc(CC(=O)Nc4cccc(F)c4)[nH]n3)ncnc2c1)CCOP(=O)(O)O` [AZD-1152] + C=CC(=O)N1CCN(c2nc(=O)n(-c3c(C)ccnc3C(C)C)c3nc(-c4c(O)cccc4F)c(F)cc23)[C@@H](C)C1 [sotorasib], the figures for the “combination cScore with sotorasib” value in the experiment on NCI-H358 [4], in the experiment on NCI-H2122 [5] and with SW837 [6] were 1.15, 11.3 and 9.37, respectively.
The matching figures for `Cc1nc(NC(=O)N2CCC[C@H]2C(N)=O)sc1-c1ccnc(C(C)(C)C(F)(F)F)c1` [BYL-719] + C=CC(=O)N1CCN(c2nc(=O)n(-c3c(C)ccnc3C(C)C)c3nc(-c4c(O)cccc4F)c(F)cc23)[C@@H](C)C1 [sotorasib]: 5.72, 24.8 and 24.4.
`CC/C(=C(\c1ccccc1)c1ccc(OCCN(C)C)cc1)c1ccccc1` [Tamoxifen] + C=CC(=O)N1CCN(c2nc(=O)n(-c3c(C)ccnc3C(C)C)c3nc(-c4c(O)cccc4F)c(F)cc23)[C@@H](C)C1 [sotorasib]: the “combination cScore with sotorasib” value with NCI-H358 [4] is 2.01; with NCI-H2122 [5], 11.1; in the experiment with SW837 [6] it was 0.835.
Regarding `CC1(C)CCC(c2ccc(Cl)cc2)=C(CN2CCN(c3ccc(C(=O)NS(=O)(=O)c4ccc(N[C@H](CCN5CCOCC5)CSc5ccccc5)c(S(=O)(=O)C(F)(F)F)c4)cc3)CC2)C1` [ABT-263] + C=CC(=O)N1CCN(c2nc(=O)n(-c3c(C)ccnc3C(C)C)c3nc(-c4c(O)cccc4F)c(F)cc23)[C@@H](C)C1 [sotorasib], the figures for the “combination cScore with sotorasib” value in the experiment with NCI-H358 [4], in the experiment on NCI-H2122 [5] and with SW837 [6] were 2.08, 15.1 and 20.7, respectively.
As to `O=C(c1c(F)ccc(NS(=O)(=O)N2CC[C@@H](F)C2)c1F)c1c[nH]c2ncc(-c3cnc(C4CC4)nc3)cc12` [PLX8394] + C=CC(=O)N1CCN(c2nc(=O)n(-c3c(C)ccnc3C(C)C)c3nc(-c4c(O)cccc4F)c(F)cc23)[C@@H](C)C1 [sotorasib], the entries for the “combination cScore with sotorasib” value with NCI-H358 [4], with NCI-H2122 [5] and in the experiment with SW837 [6] were 6.09, 24.2 and 3.79, respectively.
On to `Nc1cc(C(F)(F)F)c(-c2cc(N3CCOCC3)nc(N3CCOCC3)n2)cn1` [BKM120] + C=CC(=O)N1CCN(c2nc(=O)n(-c3c(C)ccnc3C(C)C)c3nc(-c4c(O)cccc4F)c(F)cc23)[C@@H](C)C1 [sotorasib], for which the entries for the “combination cScore with sotorasib” value in the experiment on NCI-H358 [4], in the experiment with NCI-H2122 [5] and with SW837 [6] were 4.4, 16.9 and 15.9, respectively.
The matching figures for `C=CC(=O)Nc1cc(Nc2nccc(-c3cn(C)c4ccccc34)n2)c(OC)cc1N(C)CCN(C)C` [Osimertinib] + C=CC(=O)N1CCN(c2nc(=O)n(-c3c(C)ccnc3C(C)C)c3nc(-c4c(O)cccc4F)c(F)cc23)[C@@H](C)C1 [sotorasib]: 11.6, 16.7 and 15.9.
Regarding `C[C@@H]1CN(CC(=O)Nc2ccc3c(c2)Cc2cccc(-c4cc(=O)cc(N5CCOCC5)o4)c2S3)C[C@H](C)O1` + C=CC(=O)N1CCN(c2nc(=O)n(-c3c(C)ccnc3C(C)C)c3nc(-c4c(O)cccc4F)c(F)cc23)[C@@H](C)C1 [sotorasib], the “combination cScore with sotorasib” value was determined as 5.09 in the experiment with NCI-H358 [4], 17.1 in the experiment with NCI-H2122 [5] and 9.38 in the experiment on SW837 [6].
